The nature of data set [1]: Dynamic moisture sorption (DMS) assessment. It is filed as physicochemical. The procedure:
A dynamic moisture sorption (DMS) assessment (also known as a moisture sorption-desorption profile) was performed for samples of the crystalline naphthalene-1,5-disulfonic acid salts using a VTI atmospheric microbalance, SGA-100 system (VTI Corp., Hialeah, Fla. 33016). A sample size of approximately 10 mg was used and the humidity was set at the ambient value at the start of the analysis. A typical DMS analysis consisted of three scans: ambient to 2% relative humidity (RH), 2% RH to 90% RH, 90% RH to 5% RH at a scan rate of 5% RH/step. The mass was measured every two minutes and the RH was changed to the next value (+/−5% RH) when the mass of the sample was stable to within 0.01% for 5 consecutive points.

The conditions of data set [2]: 6 weeks; −20° C. closed, 40° C./75% RH open and closed, 50° C. closed; all conditions. The procedure: Samples of the crystalline mononapadisylate salt of Example 2, about 200 mg each, were stored in multiple 3 mL borosilicate vials at −20° C. (closed container), 40° C./75% RH (open and closed container), and at 50° C. (closed container). At specific intervals, the entire contents of a representative vial was analyzed by the following HPLC method:
Column: Agilent Zorbox SB-C18, 4.6×250 mm, 5 μm; Mobile Phase A: 98% water, 2% ACN, 0.1% TFA; Mobile Phase B: 10% water, 90% ACN; 0.1% TFA; Flow rate: 1 mL/min; Injection Volume: 20 μL; Detector: 220 nm; Gradient-Time in minutes (% Mobile Phase B): 0.0 (10); 4.00 (20); 26.00 (28); 34.40 (100); 38.40 (100); 38.50 (10); and 45.00 (10). […] These stock solutions were diluted to 1 mg/mL in 10% ACN for injection onto the HPLC.

The conditions of data set [3]: pH 4.5. The procedure:
A solution was prepared with 0.1 mg/mL freebase equivalents (using a crystalline mononapadisylate salt prepared as described in Example 2) in 10 mM citrate buffered normal saline, pH 4.5. […] Less than 0.5% degradation was observed after storage for one month at 40° C./75% RH.

The nature of data set [4]: Differential scanning calorimetry (thermal stability). It is filed as physicochemical. The note with it: DSC trace, 10° C./min. Background: DSC measures the heat that a sample takes up or gives off during a temperature scan.
Experimental: Differential scanning calorimetry (DSC) was performed using a TA Instruments Model Q-10 module with a Thermal Analyst controller. Data were collected and analyzed using TA Instruments Thermal Solutions software. A sample of about 1 mg was accurately weighed into an aluminum pan with lid. The sample was evaluated using a linear heating ramp of 10° C./min from ambient temperature to approximately 250° C. The DSC cell was purged with dry nitrogen during use.
The conditions of data set [5]: Pre-Micronization.

SMILES strings stand for the structures.

`O=C(CCN1CCC(OC(=O)Nc2ccccc2-c2ccccc2)CC1)NCCCCCNCc1ccc(O)cc1.O=S(=O)(O)c1cccc2c(S(=O)(=O)O)cccc12` [Crystalline Mononapadisylate Salt of Biphenyl-2-ylcarbamic Acid 1-2-[5-(4-Hydroxybenzylamino)pentylcarbamoyl]ethyl]piperidin-4-yl Ester]: the “sorption/desorption profile and hygroscopicity” value in data set [1] (DMS trace) is reported as “reversible sorption/desorption profile with low hygroscopicity”. For the same compound, the weight gain in data set [1] (exposed to 2-90% RH) is recorded as 4.5%; in data set [1] (humidity range of 40-70% RH) it was 0.7%; in data set [1] (humidity range of 40-75% RH) it was 0.8%; in data set [1] (humidity range of 40-75% RH, listed as crystalline mononapadisylate salt of the compound of formula I), “less than 0.8%”. The “change in chemical purity (HPLC)” value in data set [2] is “no detectable change”. Also, the “change in the appearance of the material” value in data set [2] is “no observable change”. Further, in data set [3] (0.1 mg/mL freebase equivalents in 10 mM citrate buffered normal saline, one month at 40° C./75% RH), the degradation in solution result is “Less than 0.5%”. The solubility result in data set [3] (10 mM citrate buffered normal saline) is “approximately 0.4 mg/mL”. Moreover, the “thermal decomposition temperature (no thermal decomposition below)” value in data set [4] was no less than 225 °C. Moreover, in data set [5], the “particle size D (v, 0.1)” value came out at 2.5 μm. For the same compound, the “particle size D (v, 0.5)” value in data set [5] was 9.4 μm. For the same compound, the “particle size D (v, 0.9)” value in data set [5] is listed as 22.1 μm.

The values above are taken from patent publication US20060205949A1, “Crystalline forms of a biphenyl compound” (THERAVANCE, INC., priority 2005, published 2006).
